One compound from patent publication US10426718B2, “Compositions and methods for treating hair loss and delaying aging of skin” (Phyto Tech Corp., priority 2012, dated 2019) can be followed below.

What all share (format): in vivo, mouse
Data set [1] has as its system chronically stressed C57BL/6J mice. Description: open field test (OFT) behavioral anxiety test in chronically stressed mice. Particulars: 1 μM DHM in Vaseline, topical once per day for six weeks. The method, then:
(§1) The effectiveness of DHM in the treatment of stress-induced hair loss was tested using two groups of eight week old C57BL/6J mice. Chronic stress was induced in the first group (n=20) by restraining each mouse in the test group for 3 hours per day for 21 consecutive days in a modified 50 ml clear polystyrene conical centrifuge tube with multiple air holes for ventilation. The second group of mice (n=10) remained undisturbed in their home cages (Fernandex-Vozmediano et al. (1994) “Contact dermatitis due to topical spironolactone.” Contact Dermatitis 30: 118-9; Tresch, et al. (2011) “T cell-mediated acute localized exanthematous pustulosis caused by finasteride.” J Allergy Clin Immunol 129: 589-94). The completion of the 21 day stress-induction cycle was followed by a two day withdrawal. […] The rodents' stress levels were also assessed via elevated plus maze (EPM) and open field test (OFT). […] Within the context of EPM, anxiety-related behavior was measured by the degree to which a mouse avoided the unenclosed arms of the maze. […] In OFT, each mouse was placed on an empty table surrounded by walls, and the mouse's movements and the time it spent moving were monitored. Within the context of OFT, anxiety-related behavior was measured by the degree to which a mouse avoided the open center and stayed close to the walls. […]

The test system of data set [2] is C57BL/6J male mice. The experiment in a line: induction of anagen on depilated dorsal skin. Particulars: DHM 10% (w/w-%), 1 ml topical daily, day 8; vs vehicle control; similar to minoxidil 2%; P<0.05, N=10. An excerpt: (§2) A total of 40 seven-week-old, wild type C57BL/6J male mice were used for the study. The mice were housed individually (one mouse/cage). The mice were randomly assigned to one of four treatment groups that contained 10 mice per group. The treatment groups included a vehicle control, a positive control (minoxidil 2%), DHM 5% (w/w-%), and DHM 10% (w/w-%).
(§3) The vehicle used for all treatment groups was a mixture of alcohol denat., propanediol, water, ethylhexylglycerin, and phenoxyethanol. The DHM used in the DHM treatment groups has a purity of 98%.
(§4) The DHM 10% treatment contained the following percentage concentrations (w/w-%): 20% alcohol denat., 10% DHM, 50% propanediol, 19.5% water, and 0.5% ethylhexylglycerin and phenoxyethanol.
(§5) The hair of the dorsal skin (2×5 cm) from every mouse was removed by clipping and topical application of calcium thioglycolate to depilate the clipped area. The next day, mice without visible wounds were used for the study. The mice received a daily topical application of 1 ml of their respective treatment per day. Hair regrowth was quantified by analyzing photographs that were taken of each mouse every 4 days after topical treatment for a total of 21 days (day 0, 4, 8, 12, 16, and 21). For each mouse, an area of 3 cm^2 of the back was analyzed. All experiments were continued for 21 days. […]

Another data set has as its system c57BL/6J mice. Description: topical toxicity / allergic reaction test, Vaseline mixed with DHM on shaved skin. Particulars: Vaseline mixed with 1 g DHM, six weeks. From the text:
To determine whether topical application of DHM is toxic or causes allergic reaction, Vaseline mixed with 1 g DHM was applied to the shaved skin of c57BL/6J mice for six weeks.

Data set [3] concerns C57BL/6J male mice. The experiment in a line: hair regrowth on depilated dorsal skin. Particulars: DHM 10% (w/w-%), 1 ml topical daily, day 12; vs vehicle control; similar to minoxidil 2%; P<0.05, N=10.
From the text: as §2, §3, §4, §5

Data set [4] concerns chronically stressed C57BL/6J mice. Description: elevated plus maze (EPM) behavioral anxiety test in chronically stressed mice. Particulars: for behavioral anxiety (EPM and OFT together): 1 μM DHM, daily topical treatment for 6 weeks, chronically stressed mice. The method, then: The effectiveness of DHM in the treatment of stress-induced hair loss was tested using two groups of eight week old C57BL/6J mice. Chronic stress was induced in the first group (n=20) by restraining each mouse in the test group for 3 hours per day for 21 consecutive days in a modified 50 ml clear polystyrene conical centrifuge tube with multiple air holes for ventilation. The second group of mice (n=10) remained undisturbed in their home cages (Fernandex-Vozmediano et al. (1994) “Contact dermatitis due to topical spironolactone.” Contact Dermatitis 30: 118-9; Tresch, et al. (2011) “T cell-mediated acute localized exanthematous pustulosis caused by finasteride.” J Allergy Clin Immunol 129: 589-94). The completion of the 21 day stress-induction cycle was followed by a two day withdrawal. […] The rodents' stress levels were also assessed via elevated plus maze (EPM) and open field test (OFT). EPM and OFT are behavioral tests that are commonly used to assess anxiety by measuring a mouse's locomotor activity and willingness to explore. When anxious, rodents naturally prefer enclosed dark spaces to opened brightly lit spaces. In the EPM test, individual mice from each group were placed on a plus-shaped apparatus that was raised from the floor and had two open and two enclosed arms. Within the context of EPM, anxiety-related behavior was measured by the degree to which a mouse avoided the unenclosed arms of the maze. As shown in FIG. 2A and FIG. 2B, the unstressed mice explored the open arms, whereas the chronically stressed mice avoided the open arms and restricted their movements to the closed arms. In OFT, each mouse was placed on an empty table surrounded by walls, and the mouse's movements and the time it spent moving were monitored. Within the context of OFT, anxiety-related behavior was measured by the degree to which a mouse avoided the open center and stayed close to the walls. As shown in FIG. 2C and FIG. 2D, the unstressed mice explored center of the table, whereas the chronically stressed mice avoided the center and remained in the corners. […]

The test system is the same in data set [5]. Description: treatment of stress-induced hair loss (restraint-stressed mice), hair regrowth. Particulars: 1 μM DHM in 1 oz. Vaseline, topical once per day for six weeks, vs Vaseline alone. On the procedure:
as §1

Take `O=C1c2c(O)cc(O)cc2O[C@H](c2cc(O)c(O)c(O)c2)[C@H]1O` [DHM, (2R,3R)-3,5,7-trihydroxy-2-(3,4,5-trihydroxyphenyl)-2,3-dihydrochromen-4-one]: in data set [1], the “locomotor activity in OFT” value was “significantly increased locomotor activity” and the “running distance in OFT” value is recorded as “longer running distance comparable to those of unstressed mice”. Besides, the “induction of anagen (grading 0-3)” value in the data set on C57BL/6J male mice [2] is recorded as “significantly different to treatment with the vehicle control”. Besides, in the data set with c57BL/6J mice, the “changes in body weight” value is given as “did not exhibit any changes”; the “changes in metabolic rate” value is “did not exhibit any changes”; the “rash, redness, or other responses associated with an allergic reaction” value is “did not exhibit rash, redness, or other responses associated with an allergic reaction”. Besides, the “hair regrowth (grading 0-3)” value with C57BL/6J male mice [3] is listed as “statistically significant increase in hair regrowth”. Besides, the “willingness to explore the open arms of the EPM apparatus” value in data set [4] (1 μM DHM in Vaseline, topical once per day for six weeks, compared with unstressed control mice) was “as willing to explore the open arms of the EPM apparatus as the unstressed control mice”. Besides, the “behavioral anxiety (EPM and OFT together)” value in data set [4] is reported as “reversed”. In addition, in data set [4] (listed as dihydromyricetin), the “behavioral anxiety (EPM and OFT together)” value is recorded as “behavioral anxiety was reduced”. Also, in data set [5], the “hair regrowth on bald spots” value is “hair regrowth was observed”. Besides, in data set [5] (listed as dihydromyricetin), the “hair regrowth on bald spots” value was “regrowth of hair”.
